According to patent US20260008775A1, “AZOLE MODULATORS OF CHOLESTEROL BIOSYNTHESIS AND THEIR USE FOR PROMOTING REMYELINATION” (GENENTECH, INC., priority 2022, published 2026):
Like-named read-outs stand apart in the source and are kept apart here.

Legend:
[1] = molecular target: human emopamil binding protein and human 7-dehydrocholesterol reductase (hEBP-DHCR7) (Homo sapiens (Human), UniProt Q15125); assay: hEBP-DHCR7 radioligand binding assay (filter binding, membranes of co-expressing HEK293 cells); details: competition with [3H] radioligand, 8 doses 0.06 to 5000 nM, Ki calculated from IC50
Chain of human emopamil binding protein and human 7-dehydrocholesterol reductase (hEBP-DHCR7) (Q15125 whole entry): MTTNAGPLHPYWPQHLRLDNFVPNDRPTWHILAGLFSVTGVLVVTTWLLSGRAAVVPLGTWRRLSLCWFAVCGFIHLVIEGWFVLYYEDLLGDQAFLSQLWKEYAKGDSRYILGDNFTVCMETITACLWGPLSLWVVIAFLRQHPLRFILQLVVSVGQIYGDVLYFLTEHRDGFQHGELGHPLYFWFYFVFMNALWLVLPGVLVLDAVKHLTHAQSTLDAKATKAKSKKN
Method in brief: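 Membranes from HEK293 cells transiently co-expressing hEBP and DHCR7 (10 μg/well) were incubated for 3 h at 22 °C with tritiated spiro-sulfone radioligand (added at 25 nM) and compound at 1 μM or 0.06–5000 nM. Filtration and scintillation counting followed. Inhibition was normalised to 5 μM unlabelled ligand and DMSO, and Ki was derived as IC50/(1+[L]/Kd).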

[2] = system: zymostenol accumulation (EBP) in EpiSC-derived OPCs; assay: GC/MS-based sterol profiling, zymostenol accumulation in EpiSC-derived OPCs; type: cell-based, mouse; details: EpiSC-derived OPCs, 24 hr, 8 doses from 0.15 nM to 333 nM, read-out: Mouse Zymostenol GCMS EC50
Method in brief: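 Mouse epiblast stem cell-derived OPCs plated at 100,000 cells/well in growth-factor-free N2B27 and treated 24 h. Sterols extracted by modified Folch wash, silylated with BSTFA, and quantified by electron-impact GC/MS against cholesterol-d7 (zymostenol ion 458). Zymostenol normalised to 24 h 100 nM positive-control reference.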

EpiSC-derived OPCs = assay: In vitro phenotypic screening of OPCs, MBP high-content imaging (percentage of oligodendrocytes); type: cell-based, mouse; details: 3 days, MBP stain, dose-response 0.5 nM to 1000 nM, read-out: OPC EC50
Method in brief: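 Mouse epiblast stem cell-derived OPCs were plated without growth factors and given 8-point doses (1000 nM to 0.5 nM, 0.1% DMSO final) for 3 days at 37 °C. MBP/DAPI immunostaining and high-content imaging gave the percentage of oligodendrocytes. EC50 came from a Hill-equation fit.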

Ki [1] [nM] | EC50 ([2]; Mus musculus, 24 h) [nM] | EC50 (EpiSC-derived OPCs; Mus musculus, 72 h) [nM] | EC50 [2] [nM] | EC50 (EpiSC-derived OPCs) [nM] | SMILES
33.3 | 20.3 | 136 |  |  | CC(C)n1nc(-c2cnc(C(F)(F)F)nc2)nc1[C@H]1CC[C@@H](N2CCOCC2)C1 [Compound 95, 4-((1R,3S)-3-(1-Isopropyl-3-(2-(trifluoromethyl)pyrimidin-5-yl)-1H-1,2,4-triazol-5-yl)cyclopentyl)morpholine]
53 | 11 | 48 |  |  | CC(C)n1nc(-c2cncc(C(F)(F)F)c2)cc1[C@H]1[C@@H]2C[C@H](N3CCOC[C@@H]3C)C[C@@H]21 (single isomer, unassigned) [45*]
13.1 | 42.3 | 131 |  |  | CC(C)n1nc(-c2ccccc2F)cc1[C@H]1[C@@H]2C[C@@H](N3CCCOCC3)C[C@@H]21 [Compound 194*, 4-((1R,3s,5S,6r)-6-(3-(2-fluorophenyl)-1-isopropyl-1H-pyrazol-5-yl)bicyclo[3.1.0]hexan-3-yl)-1,4-oxazepane]
13.1 | 1.73 | 18.3 |  |  | CC(C)n1nc(-c2cncc(C(F)(F)F)c2)cc1[C@@H]1CC[C@H](N2CCCOCC2)C1 (single isomer, unassigned) [62*]
15 | 1.18 | 1.56 |  |  | CC(C)n1nc(-c2cccc(OC(F)F)c2)nc1[C@H]1[C@@H]2C[C@H](N3CCOC[C@H]3C)C[C@@H]21 [Compound 76, (R)-4-((1R,3r,5S,6R)-6-(3-(3-(Difluoromethoxy)phenyl)-1-isopropyl-1H-1,2,4-triazol-5-yl)bicyclo[3.1.0]hexan-3-yl)-3-methylmorpholine]
16 | 2.07 | 6 |  |  | CC(C)n1nc(-c2cnc(C(F)(F)F)nc2)nc1[C@H]1[C@@H]2C[C@H](N3CCOC[C@H]3C)C[C@@H]21 [Compound 204, (R)-4-((1R,3r,5S,6r)-6-(1-isopropyl-3-(2-(trifluoromethyl)pyrimidin-5-yl)-1H-1,2,4-triazol-5-yl)bicyclo[3.1.0]hexan-3-yl)-3-methylmorpholine]
10.9 | 1.33 | 6.73 |  |  | CC(C)n1nc(-c2cccc(C(F)(F)F)c2)nc1[C@@H]1CC[C@H](N2CCOCC2)C1 (single isomer, unassigned) [22*]
38.9 | 20.9 | 80.6 |  |  | CC(C)n1nc(-c2cncc(C(F)(F)F)c2)cc1[C@H]1CC[C@@H](N2CCOCC2)CC1 [1*, 4-((1s,4s)-4-(1-isopropyl-3-(5-(trifluoromethyl)pyridin-3-yl)-1H-pyrazol-5-yl)cyclohexyl)morpholine]
34.5 | 52 | 354 |  |  | CC(C)n1nc(-c2cccc(C(F)(F)F)n2)cc1[C@H]1[C@@H]2C[C@H](N3CCOCC3)C[C@@H]21 [Compound 32, 4-((1R,3r,5S,6r)-6-(1-isopropyl-3-(6-(trifluoromethyl)pyridin-2-yl)-1H-pyrazol-5-yl)bicyclo[3.1.0]hexan-3-yl)morpholine]
50 | 66.5 | 233 |  |  | CC(C)n1nc(-c2cccc(C(F)(F)F)c2)nc1[C@H]1[C@@H]2C[C@H](N3CCOC[C@@H]3C)C[C@@H]21 [Compound 67, (S)-4-((1R,3s,5S,6S)-6-(1-Isopropyl-3-(3-(trifluoromethyl)phenyl)-1H-1,2,4-triazol-5-yl)bicyclo[3.1.0]hexan-3-yl)-3-methylmorpholine]
109 | 3.95 | 8.41 |  |  | CC(C)n1nc(-c2cccc(C(F)(F)F)n2)nc1[C@H]1[C@@H]2C[C@H](N3CCOC[C@H]3C)C[C@@H]21 [Compound 73, (R)-4-((1R,3r,5S,6R)-6-(1-isopropyl-3-(6-(trifluoromethyl)pyridin-2-yl)-1H-1,2,4-triazol-5-yl)bicyclo[3.1.0]hexan-3-yl)-3-methylmorpholine]
21.3 | 27.1 | 55.9 |  |  | CC(C)n1nc(-c2ccc(F)cc2)cc1[C@H]1[C@@H]2C[C@@H](N3CCCOCC3)C[C@@H]21 [Compound 184*, 4-((1R,3s,5S,6r)-6-(3-(4-fluorophenyl)-1-isopropyl-1H-pyrazol-5-yl)bicyclo[3.1.0]hexan-3-yl)-1,4-oxazepane]
8.9 |  |  | 1.65 | 11.3 | CC(C)n1nc(-c2cccc(C(F)(F)F)c2)nc1[C@H]1CC[C@H](N2CCOCC2)C1 (single isomer, unassigned) [24*]
15.5 |  |  | 13.1 | 132 | CC(C)n1nc(-c2cccc(C(F)(F)F)c2)nc1[C@H]1CC[C@H](N2CCOCC2)C1 (single isomer, unassigned) [23*]
8.89 | 3.15 | 11.7 |  |  | CC(C)n1nc(-c2ccc(C(F)(F)F)nc2)nc1[C@@H]1CC[C@H](N2CCOCC2)C1 [Compound 105, 4-((1S,3R)-3-(1-Isopropyl-3-(6-(trifluoromethyl)pyridin-3-yl)-1H-1,2,4-triazol-5-yl)cyclopentyl)morpholine]
10.6 | 3 | 12.4 |  |  | CCn1nc(-c2cncc(C(F)(F)F)c2)cc1[C@H]1[C@@H]2C[C@H](N3CCCOCC3)C[C@@H]21 [Compound 54, 4-((1R,3r,5S,6r)-6-(1-ethyl-3-(5-(trifluoromethyl)pyridin-3-yl)-1H-pyrazol-5-yl)bicyclo[3.1.0]hexan-3-yl)-1,4-oxazepane]
135 | 26.3 | 158 |  |  | CCn1nc(-c2ccc(C(F)(F)F)nc2)nc1[C@H]1CC[C@@H](N2CCCOCC2)CC1 [7*, 4-((1s,4s)-4-(1-ethyl-3-(6-(trifluoromethyl)pyridin-3-yl)-1H-1,2,4-triazol-5-yl)cyclohexyl)-1,4-oxazepane]
8.04 | 2.66 | 8.52 |  |  | CC(C)n1nc(-c2cccc(C#N)c2)cc1[C@H]1[C@@H]2C[C@H](N3CCCOCC3)C[C@@H]21 [Compound 191*, 3-(5-((1R,3r,5S,6r)-3-(1,4-Oxazepan-4-yl)bicyclo[3.1.0]hexan-6-yl)-1-isopropyl-1H-pyrazol-3-yl)benzonitrile]
32.2 | 11.5 | 93.2 |  |  | CC(C)n1nc(-c2cncc(C(F)(F)F)c2)nc1[C@H]1CC[C@@H](N2CCOCC2)C1 (single isomer, unassigned) [Compound 118*]
100 | 241 | 643 |  |  | CC(C)n1nc(-c2cccc(C(F)(F)F)n2)cc1[C@H]1[C@@H]2C[C@@H](N3CCOCC3)C[C@@H]21 [Compound 31, 4-((1R,3s,5S,6r)-6-(1-Isopropyl-3-(6-(trifluoromethyl)pyridin-2-yl)-1H-pyrazol-5-yl)bicyclo[3.1.0]hexan-3-yl)morpholine]
34.7 | 10.5 | 34.3 |  |  | CC(C)n1nc(-c2ccc(C(F)(F)F)nc2)nc1[C@H]1CC[C@@H](N2CCCOCC2)C1 [Compound 6, 4-((1R,3S)-3-(1-isopropyl-3-(6-(trifluoromethyl)pyridin-3-yl)-1H-1,2,4-triazol-5-yl)cyclopentyl)-1,4-oxazepane]
7.29 | 5.41 | 7.12 |  |  | CC(C)n1nc(-c2ccccc2F)cc1[C@H]1[C@@H]2C[C@H](N3CCCOCC3)C[C@@H]21 [Compound 193*, 4-((1R,3r,5S,6r)-6-(3-(2-Fluorophenyl)-1-isopropyl-1H-pyrazol-5-yl)bicyclo[3.1.0]hexan-3-yl)-1,4-oxazepane]
26.2 | 16.4 | 48.9 |  |  | CC(C)n1nc(-c2ccc(C(F)(F)F)nc2)cc1[C@@H]1CC[C@H](N2CCN(CCO)CC2)C1 (single isomer, unassigned) [87*]
11 | 8.23 | 24.5 |  |  | CC(C)n1nc(-c2ccc(OC(F)F)cc2)cc1[C@H]1[C@@H]2C[C@H](N3CCCOCC3)C[C@@H]21 (single isomer, unassigned) [Compound 201*]
112 | 30 | 175 |  |  | CC(C)n1nc(-c2cncc(C(F)(F)F)c2)cc1[C@H]1[C@@H]2C[C@@H](N3C[C@H]4C[C@@H]3CO4)C[C@@H]21 (single isomer, unassigned) [35*]
27.9 | 8.19 | 27.3 |  |  | CC(C)n1nc(-c2cncc(OC(F)F)c2)nc1[C@H]1[C@@H]2C[C@H](N3CCCOCC3)C[C@@H]21 [Compound 69, 4-((1R,3r,5S,6r)-6-(3-(5-(Difluoromethoxy)pyridin-3-yl)-1-isopropyl-1H-1,2,4-triazol-5-yl)bicyclo[3.1.0]hexan-3-yl)-1,4-oxazepane]
18.4 | 7.28 | 11.6 |  |  | CC(C)n1nc(-c2ccc(C(F)(F)F)nc2)cc1[C@H]1[C@@H]2C[C@H](N3CCCOCC3)C[C@@H]21 [Compound 48, 4-((1R,3S,5S,6R)-6-(1-Isopropyl-3-(6-(trifluoromethyl)pyridin-3-yl)-1H-pyrazol-5-yl)bicyclo[3.1.0]hexan-3-yl)-1,4-oxazepane]
